Laboratory results: US10385041B2, “Terpene derivative-based PAR1 inhibitor, preparation method thereof, and use in treatment of thrombotic diseases” (SHANDONG UNIVERSITY, priority 2015, dated 2019)

Biological target: T1, PAR1 (Homo sapiens, UniProt P25116)
T1 sequence (P25116 22-425): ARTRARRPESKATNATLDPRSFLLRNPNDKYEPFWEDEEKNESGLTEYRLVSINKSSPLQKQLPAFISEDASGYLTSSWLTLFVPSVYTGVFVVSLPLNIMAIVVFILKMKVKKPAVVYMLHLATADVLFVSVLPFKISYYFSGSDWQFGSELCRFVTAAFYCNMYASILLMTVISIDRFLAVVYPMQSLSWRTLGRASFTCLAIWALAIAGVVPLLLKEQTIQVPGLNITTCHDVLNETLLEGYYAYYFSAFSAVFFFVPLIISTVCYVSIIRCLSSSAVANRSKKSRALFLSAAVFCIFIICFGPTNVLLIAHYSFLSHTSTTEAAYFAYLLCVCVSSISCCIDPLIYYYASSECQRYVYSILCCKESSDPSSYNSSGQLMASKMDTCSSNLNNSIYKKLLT
Experiment: Calcium ion influx experiment (FLIPR), PAR1 inhibition activity, HEK293-Ga15-PAR1 cell strain, agonist haTRAP
Type: cell-based
Conditions: HEK293-Ga15-PAR1 cells; for IC50: calcium influx, agonist haTRAP 3 μM, 4-PL fit; for Slope: slope of 4-PL dosage-effect curve, haTRAP 3 μM
Protocol: Embodiment 6: Determination of Biological Activity (PAR1 Inhibition Activity) of the Compound
An HEK293-Ga15-PAR1 cell strain (HD Biosciences stable cell strain) was quickly taken out of a liquid nitrogen tank, and shaken continuously in a 37° C. water bath until it was completely melted. A cell suspension was quickly added into a pre-heated culture medium (90% DMEM+10% FBS+1× Pen/Strep), placed in a centrifuge and centrifuged at 1000 rpm for 10 minutes. A centrifugal tube was taken out, the supernatant was discarded, and the fresh pre-heated culture medium was added into the centrifugal tube, cells were resuspended, and the cell suspension was added into a culture dish and cultured at 37° C. with 5% of CO2.
When the cells reached 80-90% of the culture dish, the cells were gently washed with 0.05% of trypsin-EDTA, part of digestive juice was removed, then the cells were incubated for 2-3 min, the digestion was terminated with the new culture medium, the cells were gently blew with a gun head, and the cells were resuspended. In general, the passage was performed according to 1:4 to 1:8 every 2 to 3 days.
On the day before the experiment, 1× Matrigel (Brand: BD, Cat #: 356230) was added into a clean 384-well cell plate, incubated at 37° C. for 30 minutes, and then inverted and centrifuged at 500 rpm for 30 seconds to remove the coating solution.
The cell precipitate was digested and collected, resuspended in the culture medium to 3×10^5 cells/mL, added into the coated cell plate according to 50 μL per well and then incubated at 37° C. with 5% of CO2 overnight.
On the day of the experiment, the fresh experimental buffer solution and 0.5× Calcium 4 (Brand: Molecular Devices, Cat #: R8141) loading buffer solution were prepared.
The 30 mM DMSO stock solution was first diluted with DMSO to 10 mM, and then diluted 4 times from 10 mM for a total of 10 concentrations. Ten DMSO concentration gradients of the compound were added into the experimental buffer solution at a ratio of 1:20 to prepare a working solution of the compound (5 times the final reaction concentration). After that, the working solution of the compound was transferred into a 384-well compound plate according to the layout in the following drawing for later use.
Positive control: 40 mM DMSO stock solution of the reference compound SCH79797 was diluted to 2 mM;
Negative control: 5% of DMSO prepared from the experimental buffer solution
10 mM DMSO stock of the agonist haTRAP was diluted with the experimental buffer solution to 18 μM (6 times the final reaction concentration 3 μM), and then transferred into a 384-well compound plate, at least at 25 μl/well for later use.
The cell plate incubated overnight was taken out, the cell culture medium was removed by centrifugation at 300 rpm for 30 seconds, 20 μL of freshly prepared 0.5× Calcium 4 loading buffer solution was added into every well and then incubation was performed at 37° C. with 5% of CO2 for 1 hour.
The compound working solution was transferred from the compound plate to the cell plate at 5 μL/well according to the layout, then placed at 37° C. again and incubated with 5% of CO2 for 15 minutes.
The agonist was transferred from the 384-well compound plate (FLIPR) to the cell plate at 5 μL/well according to the program set by FLIPR, and the fluorescent signals in each well of the cell plate were simultaneously read.
The inhibition rate (%) of the compound in each well on the cell plate was calculated according to the fluorescence signal values of the positive control and the negative control on each cell plate. […] The inhibition rates and the corresponding concentrations of the compounds obtained by calculation were introduced into the relevant software for graphing, and the IC50 values of the compounds were calculated according to the 4-PL dosage-effect formula. The IC50 result of the reference compound is also one of standards for testing the quality of every experiment.

SMILES | IC50 [µM] | Slope
CO[C@@H]1CC[C@]2(C)[C@H](CCC3(CO3)[C@H]2/C=C/c2ccc(-c3cccc(F)c3)cn2)[C@]1(C)CO (stereo partly drawn) [Compound I-6] | 11 | 1.53
C[C@@]1(C=O)[C@H](O)CC[C@@]2(C)[C@H](/C=C/c3ccc(-c4cccc(F)c4)cn3)C3(CC[C@H]12)CO3 (stereo partly drawn) [Compound I-7] | 3.52 | 1.02
C[C@]1(CO)[C@H]2CCC(CO)[C@@H](CCc3ccc(-c4cccc(F)c4)cn3)[C@]2(C)CC[C@H]1O (stereo partly drawn) [Compound I-3] | 8.91 | –
C[C@]1(CO)[C@H]2CCC3(CO3)[C@@H](/C=C/c3ccc(-c4cccc(F)c4)cn3)[C@]2(C)CC[C@H]1O (stereo partly drawn) [Compound I-1] | 7.76 | –
C[C@]1(CO)[C@H]2CCC(CO)[C@@H](CCc3ccc(-c4cccc(C(F)(F)F)c4)cn3)[C@]2(C)CC[C@H]1O (stereo partly drawn) [Compound I-4] | 8.76 | –
COC[C@@]1(C)[C@H]2CCC3(CO3)[C@@H](/C=C/c3ccc(-c4cccc(F)c4)cn3)[C@]2(C)CC[C@H]1O (stereo partly drawn) [Compound I-5] | 7.07 | 2.59
C[C@@]1(C(=O)O)C(=O)CC[C@@]2(C)[C@H](/C=C/c3ccc(-c4cccc(F)c4)cn3)C3(CC[C@H]12)CO3 (stereo partly drawn) [Compound I-10] | 19.7 | 1.23
COC(=O)[C@]1(C)[C@H](O)CC[C@@]2(C)[C@H](/C=C/c3ccc(-c4cccc(F)c4)cn3)C3(CC[C@@H]21)CO3 (stereo partly drawn) [Compound I-9] | 0.66 | 0.97
CC(C)c1ccc(Cn2ccc3c4c(N)nc(NC5CC5)nc4ccc32)cc1 [SCH79797, reference compound] | 8.71 | 0.95
C[C@@]12CC[C@@H](O)[C@@](C)(C(=O)O)[C@H]1CCC1(CO1)[C@H]2/C=C/c1ccc(-c2cccc(F)c2)cn1 (stereo partly drawn) [Compound I-8] | 31.6 | 1.97
C[C@]1(CO)[C@H]2CCC3(CO3)[C@@H](/C=C/c3ccc(-c4cccc(C(F)(F)F)c4)cn3)[C@]2(C)CC[C@H]1O (stereo partly drawn) [Compound I-2] | 7.95 | –
